In patent publication US20040023228A1, “System and method for analysing active ingredients designed to influence intra-cellular processes” (priority 2000, published 2004):

Tested on: tubulin
Assay: FCS measurement of incorporation of rhodamine-labeled tubulin dimers into preformed microtubules (exchange kinetics in the assembly equilibrium)
Settings: 10^−5M tubulin assembly mixture, 10^−9M rhodamine-labeled tubulin, 37° C.

| Compound | concentration up to which the action on the described kinetics can be tracked |
| --- | --- |
| COC(=O)Nc1nc2ccc(C(=O)c3cccs3)cc2[nH]1 [nocodazole] | 10^−11 M |
| CC(=O)O[C@H]1C(=O)[C@@]2(C)[C@H]([C@H](OC(=O)c3ccccc3)[C@]3(O)C[C@H](OC(=O)[C@H](O)[C@@H](NC(=O)c4ccccc4)c4ccccc4)C(C)=C1C3(C)C)[C@]1(OC(C)=O)CO[C@@H]1C[C@@H]2O [taxol, paclitaxel] | 10^−11 M |
